Values joined by “and” are separate entries in the source; they are usually repeats but may differ in a detail not shown here. Identical values can stand only once.
Assays:
ADRα1D = assay: PBK modelling-based reverse dosimetry of in vitro EC50 to ED50, ADRα1D; conditions: predicted human oral ED50 from in vitro EC50 (Pinckaers et al. [2024]) and modelled Cmax plasma venous
Description: (§1) The in vitro effect concentrations (EC50), for activation of the α1A, α1B, α1D, α2A, α2B, β1 and β2 ADR activation and the activation of TAAR1, were obtained from our previous study (Pinckaers et al. [2024]).

ADRα1A = assay: PBK modelling-based reverse dosimetry of in vitro EC50 to ED50, ADRα1A; conditions: predicted human oral ED50 from in vitro EC50 (Pinckaers et al. [2024]) and modelled Cmax plasma venous
Description: as §1

ADRβ1 [1] = assay: PBK modelling-based reverse dosimetry of in vitro EC50 to ED50, ADRβ1; parameters: species or system human; conditions: for ADRβ1 ED50: predicted human oral ED50 from in vitro EC50 (Pinckaers et al. [2024]) and modelled Cmax plasma venous
Caco-2 cells = assay: in vitro; conditions: for fa (fraction absorbed) / ka (absorption rate constant): scaled from corrected Caco-2 Papp A-B, human; for metabolic breakdown by Caco-2 cells: Caco-2 transport studies, 10 µM
Procedure: (§2) Caco-2 cells (ATCC, Manassas, VA, USA; passage 30–44) were cultured in DMEM (Gibco, New York, USA) containing 4.5 g/L d-glucose, 4 mM L-glutamine and supplemented with 10% FBS (Gibco, Grand Island, NY, USA), 1% minimal essential medium non-essential amino acids (Gibco, Paisley, UK), 100 units/mL penicillin and 100 µg/mL streptomycin (Gibco, Grand Island, NY, USA). Cells were seeded at a density of 4.0 × 10^4 cells/cm^2 on polyester transwell insert membranes (12 mm insert, 0.4 µm pore size; Corning incorporated, Kennebunk, ME, USA). Cells were maintained in a humidified incubator with 5% CO2 at 37 °C for 21 or 22 days in 0.5 mL and 1.5 mL medium in the apical and basolateral compartments, respectively. The medium was refreshed every two or three days and always one day before the permeability assay.
(§3) On the day of the experiment, cells were washed twice with HBSS without phenol red (pH 7.4; Sigma-Aldrich, Steinheim, Germany) supplemented with 0.35 g/L sodium bicarbonate and 25 mM HEPES and they were equilibrated in this supplemented HBSS for 15 min in a humidified incubator with 5% CO2 at 37 °C. […] These stocks were diluted to a final concentration of 10 µM in pre-warmed supplemented HBSS (final DMSO level = 0.1%). After 15 min, the transepithelial electrical resistance (TEER) was measured with an Epithelial Voltohmmeter (World Precision Instruments, Sarasota, USA). Compound transport was studied in two directions: from the apical to the basolateral compartment (A-B) and from the basolateral to the apical compartment (B-A). For A-B experiments, 450 µL of the compound (10 µM) was added to the apical side and 1200 µL supplemented HBSS was added to the basolateral side. A sample of 50 µL was removed immediately from the apical compartment at time point zero. After 15 and 30 min, samples were taken from the basolateral compartment. Cells were kept in the incubator during the experiment. After 60 min, medium from both compartments was sampled, cells were washed twice with supplemented HBSS and were maintained in the incubator. After 15 min, the TEER was measured again to check for epithelial barrier damage due to compound exposure. After this, cells were lysed in RIPA buffer (Thermo Scientific, Rockford, IL, USA). For B-A experiments, 400 µL of supplemented HBSS was added to the apical side and 1250 µL of the compound (10 µM) was added to the basolateral side. A sample of 50 µL was removed immediately from the basolateral compartment at time point zero. After 15 and 30 min, samples were taken from the apical compartment. After 60 min, samples were taken similarly as in A-B experiments. The sampled medium and cell lysates were stored at −20 °C till the day of the liquid chromatography–mass spectrometry (LC–MS/MS) analysis. All experiments were run in duplicate. The compounds were quantified with LC–MS/MS as described in Sect. "LC–MS/MS analysis".
(§4) Before chemical analysis, cell lysates were two times diluted in ice-cold methanol and centrifuged at 15,000 rpm at 4 °C. The supernatant was then injected into the LC–MS/MS system. Sampled buffer from donor compartments was diluted 40 times in buffer and samples from the receiver compartment were analysed undiluted. Standards were prepared in the same assay buffer to quantify the amount of compound in medium samples. For quantification of compounds in cell lysates, standards were prepared in a mixture of 50% RIPA buffer and 50% methanol.
(§5) All data are presented as mean ± SD.
(§6) For the < Tsi > a value of 3.32 h was used (Grandoni et al. [2019]).

in vitro = conditions: human; for Papp B→A at 60 min, 10 µM / efflux ratio at 60 min, 10 µM: Caco-2, pH 7.4; for recovery at 60 min, 10 µM: after 60 min, mean ± SD
Procedure: as §2, §3, §4, §5, §6

TAAR1 = assay: PBK modelling-based reverse dosimetry of in vitro EC50 to ED50, TAAR1; parameters: species or system human; conditions: for TAAR1 ED50: predicted human oral ED50 from in vitro EC50 (Pinckaers et al. [2024]) and modelled Cmax plasma venous; for dose needed to reach internal effect concentrations, times lower than the dose of higenamine: TAAR1, Fig. 6F
Description: as §1

[2] = human, t = 0.70 h, escalating intravenous infusion 0.5, 1, 2, 4 µg/kg bw/min, 3 min each; ref Feng et al. [2012]; cited from earlier work
ADRβ1 [3] = tested on: ADRβ1; parameters: method as in Pinckaers et al. [2024]; conditions: in vitro ADRβ1 activation assays, Fig. 6E; ref Pinckaers et al. [2024]; cited from earlier work
[4] = Caco-2, pH 7.4, Papp A-B corrected, corrected for the difference between Papp A-B of metoprolol in this study and in literature
[5] = Caco-2, pH 7.4, Papp A-B, Caco-2, apical to basolateral, 10 µM, HBSS pH 7.4, mean ± SD, duplicate
[6] = Caco-2, pH 7.4, Recovery (A-B), Caco-2, A-B experiments
[7] = Caco-2, pH 7.4, Recovery (B-A), Caco-2, B-A experiments

Structure (SMILES)	ADRα1D ED50 (ADRα1D)	ADRα1A ED50 (ADRα1A)	ADRβ1 ED50 (ADRβ1 [1])	fa (fraction absorbed) (Caco-2 cells)	ka (absorption rate constant) (Caco-2 cells)	Papp B→A at 60 min, 10 µM (in vitro)	efflux ratio at 60 min, 10 µM (in vitro)	Papp A→B at 60 min, 10 µM (in vitro; [4])	Papp A→B at 60 min, 10 µM (in vitro; [5])	recovery at 60 min, 10 µM (in vitro; [6])	recovery at 60 min, 10 µM (in vitro; [7])	TAAR1 ED50 (TAAR1)	observed average plasma concentration [2]	in vitro potency, times more potent than isopropyloctopamine (ADRβ1 [3])	predicted equivalent oral dose, times lower than the dose of higenamine (ADRβ1 [1]; ADRβ1, dose needed to reach the internal effect concentration)	dose needed to reach internal effect concentrations, times lower than the dose of higenamine (TAAR1)	metabolic breakdown by Caco-2 cells (Caco-2 cells)
CN(C)CCc1ccccc1 [Dimethylphenethylamine, N,N-dimethylphenethylamine]	5.60 mg/kg bw	– (compounds with a dash (-) did not activate the receptors in vitro at concentrations ≤ 300 µM)	– (compounds with a dash (-) did not activate the receptors in vitro at concentrations ≤ 300 µM)	1.00	3.66 h⁻¹	13.1 ± 0.51 ×10⁻⁶ cm/s	0.891	53.5 ×10⁻⁶ cm/s	14.7 ± 0.244 ×10⁻⁶ cm/s	76.7 ± 0.06%	93.3 ± 4.81%	14.0 mg/kg bw	–	–	–	–	–
CNCC(O)c1ccccc1 (centres unmarked) [Halostachine, halostachine]	2.52 mg/kg bw	10.5 mg/kg bw	– (compounds with a dash (-) did not activate the receptors in vitro at concentrations ≤ 300 µM)	1.00	3.46 h⁻¹	10.3 ± 0.649 ×10⁻⁶ cm/s	0.786	47.8 ×10⁻⁶ cm/s	13.1 ± 0.144 ×10⁻⁶ cm/s	84 ± 3.18%	93.9 ± 0.0289%	88.9 mg/kg bw	–	–	–	–	–
Oc1ccc(CC2NCCc3cc(O)c(O)cc32)cc1 (centres unmarked) [Higenamine, higenamine]	– (compounds with a dash (-) did not activate the receptors in vitro at concentrations ≤ 300 µM)	– (compounds with a dash (-) did not activate the receptors in vitro at concentrations ≤ 300 µM)	0.211 mg/kg bw	0.860	0.246 h⁻¹	0.0612 ± 0.00186 ×10⁻⁶ cm/s	1	0.223 ×10⁻⁶ cm/s	0.061 ± 0.0351 ×10⁻⁶ cm/s	104 ± 0.35%	105 ± 1.06%	6.09 mg/kg bw	0.5 ng/mL	3.5 times	–	–	–
CN(C)CCc1ccc(O)cc1 [Hordenine, hordenine]	11.5 mg/kg bw	– (compounds with a dash (-) did not activate the receptors in vitro at concentrations ≤ 300 µM)	– (compounds with a dash (-) did not activate the receptors in vitro at concentrations ≤ 300 µM)	1.00	3.46 h⁻¹	11.2 ± 0.22 ×10⁻⁶ cm/s	0.862	47.3 ×10⁻⁶ cm/s	13 ± 0.192 ×10⁻⁶ cm/s	96.7 ± 1.27%	107 ± 0.0262%	15.9 mg/kg bw	–	–	–	–	–
CC(C)NCC(O)c1ccc(O)cc1 (centres unmarked) [Isopropyloctopamine, isopropyloctopamine]	– (compounds with a dash (-) did not activate the receptors in vitro at concentrations ≤ 300 µM)	– (compounds with a dash (-) did not activate the receptors in vitro at concentrations ≤ 300 µM)	–	0.994	0.818 h⁻¹	0.652 ± 0.0444 ×10⁻⁶ cm/s	–	2.56 ×10⁻⁶ cm/s	0.703 ± 0.041 ×10⁻⁶ cm/s	79.8 ± 2.19%	76.5 ± 1.27%	1.26 mg/kg bw	–	–	2.5 times	4.8 times	–
CNC(C)C(O)c1ccc(O)cc1 (centres unmarked) [Methylsynephrine]	– (compounds with a dash (-) did not activate the receptors in vitro at concentrations ≤ 300 µM)	29.7 mg/kg bw	16.9 mg/kg bw	0.971	0.563 h⁻¹	0.39 ± 0.202 ×10⁻⁶ cm/s	1.1	1.3 ×10⁻⁶ cm/s	0.353 ± 0.215 ×10⁻⁶ cm/s	114 ± 8.39%	102 ± 11.7%	– (compounds with a dash (-) did not activate the receptors in vitro at concentrations ≤ 300 µM)	–	–	–	–	–
NCCc1ccccc1 [Phenethylamine, phenethylamine]	– (compounds with a dash (-) did not activate the receptors in vitro at concentrations ≤ 300 µM)	– (compounds with a dash (-) did not activate the receptors in vitro at concentrations ≤ 300 µM)	– (compounds with a dash (-) did not activate the receptors in vitro at concentrations ≤ 300 µM)	1.00	1.64 h⁻¹	1.95 ± 1.04 ×10⁻⁶ cm/s	0.677	10.5 ×10⁻⁶ cm/s	2.88 ± 0.22 ×10⁻⁶ cm/s	15.7 ± 1.51%	103 ± 3.36%	67.7 mg/kg bw	–	–	–	–	metabolized by Caco-2 cells
NCCc1ccc(O)cc1 [Tyramine, tyramine]	– (compounds with a dash (-) did not activate the receptors in vitro at concentrations ≤ 300 µM)	– (compounds with a dash (-) did not activate the receptors in vitro at concentrations ≤ 300 µM)	–	1.00	1.50 h⁻¹	1.13 ± 0.67 ×10⁻⁶ cm/s	–	8.7 ×10⁻⁶ cm/s	2.38 ± 1.19 ×10⁻⁶ cm/s	114 ± 11.2%	84 ± 6.25%	34.7 mg/kg bw	–	–	–	–	not observed
CNCC(O)c1ccc(O)cc1 (centres unmarked) [p-Synephrine, Synephrine]	2.35 mg/kg bw	3.32 mg/kg bw	–	0.997	0.951 h⁻¹	0.22 ± 0.0453 ×10⁻⁶ cm/s	–	3.47 ×10⁻⁶ cm/s	0.951 ± 0.497 ×10⁻⁶ cm/s	109 ± 1.48%	100 ± 4.89%	127 mg/kg bw	–	–	–	–	not observed
CC(CN)c1ccccc1 (stereo not drawn) [β-Methylphenethylamine, β-methylphenethylamine]	– (compounds with a dash (-) did not activate the receptors in vitro at concentrations ≤ 300 µM)	– (compounds with a dash (-) did not activate the receptors in vitro at concentrations ≤ 300 µM)	– (compounds with a dash (-) did not activate the receptors in vitro at concentrations ≤ 300 µM)	1.00	3.79 h⁻¹	12.1 ± 2.02 ×10⁻⁶ cm/s	0.766	57.6 ×10⁻⁶ cm/s	15.8 ± 1.47 ×10⁻⁶ cm/s	80.9 ± 3.27%	89.3 ± 4.46%	0.995 mg/kg bw and 0.955 mg/kg bw	–	–	–	6.4 times	–

Reference: PMC12085399, “Quantitative in vitro-to-in vivo extrapolation of human adrenergic and trace amine-associated receptor 1 potencies of pre-workout supplement ingredients using physiologically based kinetic modelling-based reverse dosimetry” (Archives of Toxicology, 2025)
